This is an account of results in patent US7192924B2, “Corticotropin releasing factor 2 receptor agonists” (priority 2002, dated 2007).

SMILES strings stand for the structures. Peptide text beside a SMILES is read from it. Where only a bound is given, the exact number is not on record here.

The target of one test is T1, CRF1R (Homo sapiens, UniProt P34998).
T1 sequence (P34998 24-415): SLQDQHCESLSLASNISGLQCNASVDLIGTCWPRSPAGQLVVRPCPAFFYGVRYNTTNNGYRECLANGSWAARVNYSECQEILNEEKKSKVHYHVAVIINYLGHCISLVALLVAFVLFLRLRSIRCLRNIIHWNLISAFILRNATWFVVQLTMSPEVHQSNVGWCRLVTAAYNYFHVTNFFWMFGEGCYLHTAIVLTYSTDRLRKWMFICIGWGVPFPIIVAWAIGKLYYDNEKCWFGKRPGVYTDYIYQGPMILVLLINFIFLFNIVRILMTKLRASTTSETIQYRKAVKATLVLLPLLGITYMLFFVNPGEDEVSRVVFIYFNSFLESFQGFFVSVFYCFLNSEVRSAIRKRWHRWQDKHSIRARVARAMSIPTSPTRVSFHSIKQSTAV
Nature of the test: CRF1R agonist activity (EC50, Emax), called comparative CRF binding. It is filed as cell-based. As to conditions: read-out: CRF1R EC50. The source says:
(§1) The pharmacological activity and selectivity of the peptides of present invention can be determined using published test procedures. See, e.g, U.S. patent application Ser. No. 09/799,978. Because CRF2R and CRF1R are homologous proteins, it is expected that a certain proportion of agonists for CRF2R will also function as agonists of CRF1R. As discussed above, activation of CRF1R induces activation of the HPA axis since increased corticosteroid production leads to skeletal muscle atrophy. In most cases in which an increase in muscle mass or function is desired, it is not desirable to activate the HPA axis.
(§2) Because it is desirable to discriminate binding between CRF2R, as compared with CRF1R, the assays described above may be conducted using a cell, or membrane from a cell, which expresses only CRF2R or the assays can be conducted with a recombinant source of CRF2R. Cells expressing both forms of CRFR may be modified using homologous recombination to inactivate or otherwise disable the CRF1R gene. Alternatively, if the source of CRFR contains more than one CRFR type, the background signal produced by the receptor which is not of interest must be subtracted from the signal obtained in the assay. […] Known antagonists of CRFRs include, but, are not limited to, antalarmin (CRF1R selective), antisauvagine-30 (CRF2R selective) and astressin (nonselective for CRF1R/CRF2R).
(§3) Cell-based assays include the steps of contacting cells which express CRF1R or CRF2R with a peptide of the present invention or control and measuring activation of the CRFR by measuring the expression or activity of components of the CRFR signal transduction pathways.
(§4) As described in the background section above, CRFRs appear to couple through several different pathways including Gαs, Gαq or Gαi, depending upon the cell type. It is thought that agonist activation of CRFR allows the receptor to signal via any of these pathways, provided that the necessary pathway components are present in the particular cell type. Thus, to assay a particular peptide of the present invention for CRFR activation, an assay can use any of the signal transduction pathways as the readout even if the relevant cell type for treatment, in vivo, couples CRFR to skeletal muscle atrophy via a different pathway. […] Assays for measuring activation of these signaling pathways are known in the art.
(§5) For example, after contact with a peptide of the present invention, lysates of the cells can be prepared and assayed for induction of cAMP. cAMP is induced in response to Gαs activation. Because Gαs is activated by receptors other than CRFR and because a test peptide may be exerting its effect through CRFRs or by another mechanism, two control comparisons are relevant for determining whether the peptide increases levels of cAMP via activation of a CRFR. One control compares the cAMP level of cells contacted with the peptide and the cAMP level of cells contacted with a control compound (i.e., the vehicle in which the peptide is dissolved).
(§6) In one example, cAMP induction is measured with the use of DNA constructs containing the cAMP responsive element linked to any of a variety of reporter genes can be introduced into cells expressing CRFRs. Such reporter genes include, but are not limited to, chloramphenicol acetyltransferase (CAT), luciferase, glucuronide synthetase, growth hormone, fluorescent proteins (e.g., Green Fluorescent Protein), or alkaline phosphatase. Following exposure of the cells to the peptide, the level of reporter gene expression can be quantitated to determine the peptide's ability to increase cAMP levels and thus determine the peptide's ability to activate the CRFR.
(§7) In addition to using cells expressing full length CRFRs, cells can be engineered which express CRFRs containing the ligand binding domain of the receptor coupled to, or physically modified to contain, reporter elements or to interact with signaling proteins.

Another test deals with T2, CRF2R (Homo sapiens, UniProt Q13324).
T2 sequence (Q13324 1-411): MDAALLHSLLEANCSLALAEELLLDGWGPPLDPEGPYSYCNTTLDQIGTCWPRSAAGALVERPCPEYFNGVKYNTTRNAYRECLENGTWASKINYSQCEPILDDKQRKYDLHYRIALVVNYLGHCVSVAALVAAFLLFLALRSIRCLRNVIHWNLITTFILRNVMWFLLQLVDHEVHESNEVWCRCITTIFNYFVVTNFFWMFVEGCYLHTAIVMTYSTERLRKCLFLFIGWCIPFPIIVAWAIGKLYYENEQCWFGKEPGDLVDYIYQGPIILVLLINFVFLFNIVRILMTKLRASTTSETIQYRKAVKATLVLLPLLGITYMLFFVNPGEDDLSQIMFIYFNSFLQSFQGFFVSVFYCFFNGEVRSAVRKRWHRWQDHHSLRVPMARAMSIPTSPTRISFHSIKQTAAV
Put plainly: CRF2R agonist activity (EC50, Emax), called comparative CRF binding. It counts as cell-based. As to conditions: read-out: CRF2R EC50.
From the text: as §1, §2, §3, §4, §5, §6, §7

As to `CC[C@H](C)[C@H](N)C(=O)N[C@H](C(=O)N[C@@H](CC(C)C)C(=O)N[C@@H](CO)C(=O)N[C@@H](CC(C)C)C(=O)N[C@@H](CC(=O)O)C(=O)N[C@H](C(=O)N1CCC[C@H]1C(=O)N[C@H](C(=O)NCC(=O)N[C@@H](CC(C)C)C(=O)N[C@@H](CC(C)C)C(=O)N[C@@H](CCC(N)=O)C(=O)N[C@H](C(=O)N[C@@H](CC(C)C)C(=O)N[C@@H](CC(C)C)C(=O)N[C@@H](CCC(=O)O)C(=O)N[C@@H](CCC(N)=O)C(=O)N[C@@H](C)C(=O)N[C@@H](CCCNC(=N)N)C(=O)N[C@@H](C)C(=O)N[C@@H](CCCNC(=N)N)C(=O)N[C@@H](C)C(=O)N[C@@H](C)C(=O)N[C@@H](CCCNC(=N)N)C(=O)N[C@@H](CCC(=O)O)C(=O)N[C@@H](CCC(N)=O)C(=O)N[C@@H](C)C(=O)N[C@H](C(=O)N[C@H](C(=O)N[C@@H](CC(N)=O)C(=O)N[C@@H](C)C(=O)N[C@@H](CCCNC(=N)N)C(=O)N[C@H](C(=O)N[C@@H](CC(C)C)C(=O)N[C@@H](C)C(=O)N[C@@H](CCCNC(=N)N)C(=O)N[C@H](C(=O)N[C@@H](CCSC)C(N)=O)C(C)C)[C@@H](C)CC)[C@@H](C)O)[C@@H](C)O)[C@@H](C)CC)[C@@H](C)CC)C(C)C)C(C)C` [compound 368] (H-IVLSLDVPIGLLQILLEQARARAAREQATTNARILARVM-NH2), the EC50 was no less than 1000 nM at CRF1R and 50.4 nM at CRF2R.

As for `CC[C@H](C)[C@H](N)C(=O)N[C@H](C(=O)N[C@@H](CC(C)C)C(=O)N[C@@H](CO)C(=O)N[C@@H](CC(C)C)C(=O)N[C@@H](CC(=O)O)C(=O)N[C@H](C(=O)N1CCC[C@H]1C(=O)N[C@H](C(=O)NCC(=O)N[C@@H](CC(C)C)C(=O)N[C@@H](CC(C)C)C(=O)N[C@@H](CCC(N)=O)C(=O)N[C@H](C(=O)N[C@@H](CC(C)C)C(=O)N[C@@H](CC(C)C)C(=O)N[C@@H](CCC(=O)O)C(=O)N[C@@H](CCC(N)=O)C(=O)N[C@@H](C)C(=O)N[C@@H](CCCNC(=N)N)C(=O)N[C@@H](CCC(N)=O)C(=O)N[C@@H](CCCNC(=N)N)C(=O)N[C@@H](C)C(=O)N[C@@H](C)C(=O)N[C@@H](CCCNC(=N)N)C(=O)N[C@@H](CCC(=O)O)C(=O)N[C@@H](CCC(N)=O)C(=O)N[C@@H](C)C(=O)N[C@H](C(=O)N[C@H](C(=O)N[C@@H](CC(N)=O)C(=O)N[C@@H](C)C(=O)N[C@@H](CCCNC(=N)N)C(=O)N[C@H](C(=O)N[C@@H](CC(C)C)C(=O)N[C@@H](C)C(=O)N[C@@H](CCCNC(=N)N)C(=O)N[C@H](C(N)=O)C(C)C)[C@@H](C)CC)[C@@H](C)O)[C@@H](C)O)[C@@H](C)CC)[C@@H](C)CC)C(C)C)C(C)C` [compound 114] (H-IVLSLDVPIGLLQILLEQARQRAAREQATTNARILARV-NH2; N-terminus assumed), the EC50 on CRF1R was greater than 100 nM; on CRF2R, 3.42 nM.

For the compound `CC[C@H](C)[C@H](NC(=O)[C@H](CCCNC(=N)N)NC(=O)[C@H](C)NC(=O)[C@H](CC(N)=O)NC(=O)[C@H](CCC(N)=O)NC(=O)[C@H](CCC(=O)O)NC(=O)[C@H](C)NC(=O)[C@H](CCCNC(=N)N)NC(=O)[C@H](CCC(=O)O)NC(=O)[C@H](CCCNC(=N)N)NC(=O)[C@H](CCC(N)=O)NC(=O)[C@H](CO)NC(=O)[C@H](CCC(N)=O)NC(=O)[C@@H](NC(=O)[C@H](CCCCN)NC(=O)[C@H](CCC(=O)O)NC(=O)[C@H](CC(C)C)NC(=O)[C@H](CCC(=O)O)NC(=O)[C@H](CC(C)C)NC(=O)[C@H](CC(C)C)NC(=O)[C@@H](NC(=O)[C@H](CCCNC(=N)N)NC(=O)[C@H](CC(C)C)NC(=O)[C@H](CC(C)C)NC(=O)[C@H](CC(C)C)NC(=O)[C@H](CC(C)C)NC(=O)[C@@H]1CCCN1C(=O)[C@@H](NC(=O)[C@H](CC(=O)O)NC(=O)[C@@H](NC(=O)[C@H](CO)NC(=O)[C@H](CC(C)C)NC(=O)[C@H](CO)NC(=O)[C@@H]1CCCN1C(=O)[C@H](CC(N)=O)NC(=O)[C@@H](N)CC(=O)O)[C@@H](C)CC)C(C)C)[C@@H](C)O)[C@@H](C)O)C(=O)N[C@@H](Cc1ccccc1)C(=O)N[C@@H](C)C(=O)N[C@@H](CCCNC(=N)N)C(=O)N[C@H](C(N)=O)C(C)C` [compound 384] (H-DNPSLSIDVPLLLLRTLLELEKTQSQRERAEQNARIFARV-NH2; N-terminus assumed), the figures for the EC50 on CRF1R and on CRF2R were no less than 1000 nM and 7.1 nM, respectively.

As to `CC[C@H](C)[C@H](NC(=O)[C@H](C)NC(=O)[C@H](CC(N)=O)NC(=O)[C@H](CCC(N)=O)NC(=O)[C@H](CCC(=O)O)NC(=O)[C@H](C)NC(=O)[C@H](CCCNC(=N)N)NC(=O)[C@H](CCC(=O)O)NC(=O)[C@H](CCCNC(=N)N)NC(=O)[C@H](CCC(N)=O)NC(=O)[C@H](CO)NC(=O)[C@H](CCC(N)=O)NC(=O)[C@@H](NC(=O)[C@H](CCCNC(=N)N)NC(=O)[C@H](C)NC(=O)[C@H](CC(C)C)NC(=O)[C@H](CCC(=O)O)NC(=O)[C@H](CC(C)C)NC(=O)[C@H](CC(C)C)NC(=O)[C@@H](NC(=O)[C@H](CCCNC(=N)N)NC(=O)[C@H](CC(C)C)NC(=O)[C@H](CC(C)C)NC(=O)[C@H](CCC(N)=O)NC(=O)[C@H](CC(C)C)NC(=O)[C@@H]1CCCN1C(=O)[C@H](CC(C)C)NC(=O)[C@H](CC(=O)O)NC(=O)[C@@H](NC(=O)[C@H](CO)NC(=O)[C@H](CC(C)C)NC(=O)[C@H](CO)NC(=O)[C@@H]1CCCN1C(=O)[C@H](CC(N)=O)NC(=O)[C@@H](N)CC(=O)O)[C@@H](C)CC)[C@@H](C)O)[C@@H](C)O)C(=O)N[C@H](C(=O)N[C@@H](Cc1ccccc1)C(=O)N[C@@H](C)C(=O)N[C@@H](CO)C(=O)N[C@H](C(N)=O)C(C)C)[C@@H](C)CC` [compound 176] (H-DNPSLSIDLPLQLLRTLLELARTQSQRERAEQNAIIFASV-NH2; N-terminus assumed), the EC50 at CRF1R is no less than 1000 nM; on CRF2R, 12.6 nM.

In general, EC50 refers to the concentration at which the effect is half-maximal.
